Read-outs that look alike come from different tables or passages of the source.
Columns and labels:
[1] = system: all human cancer cell lines successfully tested; assay: NCI screen mean graph midpoint (MGM) for growth inhibition; type: cell-based
Procedure, shortened: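 NCI60 panel cells exposed to compound at 100, 10, 1, 0.1 and 0.01 μM for 48 h, then sulforhodamine B staining. Percentage growth versus control plotted against log concentration; MGM is the midpoint across all lines tested.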

breast MCF-7 = assay: NCI60 antiproliferative activity, cytotoxicity GI50; type: cell-based, human
Description: Selected compounds were tested for antiproliferative activity in the National Cancer Institute's developmental therapeutics assay 60 cell line screen (NCI60). The cells were incubated with the tested compounds at 100, 10, 1, 0.1, and 0.01 μM concentrations for 48 h before treatment with sulforhodamine B dye. Optical densities were recorded, and their ratios relative to that of the control were plotted as percentage growth against the log 10 of the tested compound concentrations.

breast MDA-MB-435 = assay: COMPARE screening (NCI human cancer cell line screen), cytotoxicity GI50; type: cell-based; conditions: Homo sapiens
colon HCT-116 = assay: as above; type: cell-based
Procedure, shortened: (§1)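 Five tenfold concentrations, 100 down to 0.01 μM, are applied for 48 h; growth is measured by sulforhodamine B absorbance against control.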

lung HOP-62 = assay: as above; type: cell-based
Procedure, shortened: as §1

CNS SF-539 = assay: as above; type: cell-based
Procedure, shortened: as §1

renal SN12C = assay: as above; type: cell-based
Procedure, shortened: as §1

melanoma UACC-62 = assay: as above; type: cell-based
Procedure, shortened: as §1

prostate DU-145 = assay: as above; type: cell-based
Procedure, shortened: as §1

ovarian OVCAR-3 = assay: COMPARE screening (NCI human cancer cell line screen), cytotoxicity GI50; type: cell-based
Procedure, shortened: as §1

[2] = Table 1, average GI50 of all cell lines tested (approximately 55), test range 10^−8 to 10^−4 molar
[3] = MDA-MB-435, read-out: cytotoxicity (GI50) breast MDA-MB-435
[4] = Homo sapiens, HCT-116, read-out: cytotoxicity (GI50) colon HCT-116
[5] = Homo sapiens, OVCAR-3, read-out: cytotoxicity (GI50) ovarian OVCAR-3
[6] = Homo sapiens, HOP-62, read-out: cytotoxicity (GI50) lung HOP-62
[7] = Homo sapiens, CNSSF-539, read-out: cytotoxicity (GI50) CNS SF-539
[8] = Homo sapiens, SN12C, read-out: cytotoxicity (GI50) renal SN12C
[9] = Homo sapiens, UACC-62, read-out: cytotoxicity (GI50) melanoma UACC-62
[10] = Homo sapiens, DU-145, read-out: cytotoxicity (GI50) prostate DU-145

CC[C@@]1(O)C(=O)OCc2c1cc1n(c2=O)Cc2cc3ccccc3nc2-1 [Compound S-1, camptothecin, reference compound]
GI50 ([1]; Homo sapiens, read-out: MGM GI50): 0.0405 ± 0.0187 µM
MGM (mean graph midpoint for growth inhibition) [1, 2]: .0405 ± 0.0187 µM
GI50 ([1]; all human cancer cell lines successfully tested, read-out: MGM (mean graph midpoint for growth inhibition)): 0.0405 ± 0.0187 µM
GI50 (breast MCF-7; Homo sapiens, MCF7, Table 6, NCI60, 48 h, sulforhodamine B, read-out: Cytotoxicity (GI50) breast MCF-7): 0.01 µM
GI50 (breast MDA-MB-435; MDA-MB-435, Table 1, concentration corresponding to 50% growth inhibition, read-out: cytotoxicity (GI50) breast MDA-MB-435): 0.04 µM
GI50 (breast MDA-MB-435; breast MDA-MB-435, concentration corresponding to 50% growth inhibition, read-out: cytotoxicity (GI50 in μM) breast MDA-MB-435): 0.04 µM
GI50 (colon HCT-116; Homo sapiens, HCT-116, Table 1, concentration corresponding to 50% growth inhibition, read-out: cytotoxicity (GI50) colon HCT-116): 0.03 µM
GI50 (colon HCT-116; Homo sapiens, HCT-116, Table 6, NCI60, 48 h, sulforhodamine B, read-out: Cytotoxicity (GI50) Colon HCT-116): 0.03 µM
GI50 (colon HCT-116; Homo sapiens, colon HCT-116, concentration corresponding to 50% growth inhibition, read-out: cytotoxicity (GI50 in μM) colon HCT-116): 0.03 µM
GI50 (lung HOP-62; Homo sapiens, HOP-62, Table 1, concentration corresponding to 50% growth inhibition, read-out: cytotoxicity (GI50) lung HOP-62): 0.01 µM
GI50 (lung HOP-62; Homo sapiens, HOP-62, Table 6, NCI60, 48 h, sulforhodamine B, read-out: Cytotoxicity (GI50) lung HOP-62): 0.01 µM
GI50 (lung HOP-62; Homo sapiens, lung HOP-62, concentration corresponding to 50% growth inhibition, read-out: cytotoxicity (GI50 in μM) lung HOP-62): 0.01 µM
GI50 (CNS SF-539; Homo sapiens, CNSSF-539, CNS SF-539, concentration corresponding to 50% growth inhibition, read-out: cytotoxicity (GI50 in μM) CNS SF-539): 0.01 µM
GI50 (CNS SF-539; Homo sapiens, CNSSF-539, Table 1, concentration corresponding to 50% growth inhibition, read-out: cytotoxicity (GI50) CNS SF-539): 0.01 µM
GI50 (renal SN12C; Homo sapiens, SN12C, Table 1, concentration corresponding to 50% growth inhibition, read-out: cytotoxicity (GI50) renal SN12C): 0.02 µM
GI50 (renal SN12C; Homo sapiens, SN12C, Table 6, NCI60, 48 h, sulforhodamine B, read-out: Cytotoxicity (GI50) renal SN12C): 0.02 µM
GI50 (renal SN12C; Homo sapiens, renal SN12C, concentration corresponding to 50% growth inhibition, read-out: cytotoxicity (GI50 in μM) renal SN12C): 0.02 µM
GI50 (melanoma UACC-62; Homo sapiens, UACC-62, Table 1, concentration corresponding to 50% growth inhibition, read-out: cytotoxicity (GI50) melanoma UACC-62): 0.01 µM
GI50 (melanoma UACC-62; Homo sapiens, UACC-62, Table 6, NCI60, 48 h, sulforhodamine B, read-out: Cytotoxicity (GI50) melanoma UACC-62): 0.01 µM
GI50 (melanoma UACC-62; Homo sapiens, melanoma UACC-62, concentration corresponding to 50% growth inhibition, read-out: cytotoxicity (GI50 in μM) melanoma UACC-62): 0.01 µM
GI50 (prostate DU-145; Homo sapiens, DU-145, Table 1, concentration corresponding to 50% growth inhibition, read-out: cytotoxicity (GI50) prostate DU-145): 0.01 µM
GI50 (prostate DU-145; Homo sapiens, DU-145, Table 6, NCI60, 48 h, sulforhodamine B, read-out: Cytotoxicity (GI50) prostate DU-145): 0.01 µM
GI50 (prostate DU-145; Homo sapiens, prostate DU-145, concentration corresponding to 50% growth inhibition, read-out: cytotoxicity (GI50 in μM) prostate DU-145): 0.01 µM

Cl.NCCCCCCCCn1c2c(c3ccccc3c1=O)C(=O)c1ccccc1-2 [Compound 5ar, 6-(8-Aminooctyl)-5,6-dihydro-5,11-dioxo-11H-indeno[1,2-c]isoquinoline Hydrochloride]
melting point: 182 to 185 °C
MGM (mean GI50 across cell lines) [1, 2]: 3.71 µM
GI50 (breast MDA-MB-435; [3]): 5.62 µM
GI50 (colon HCT-116; [4]): 1.66 µM
GI50 (ovarian OVCAR-3; [5]): 3.47 µM
GI50 (lung HOP-62; [6]): 2.14 µM
GI50 (CNS SF-539; [7]): 2.82 µM
GI50 (renal SN12C; [8]): 3.47 µM
GI50 (melanoma UACC-62; [9]): 3.8 µM
GI50 (prostate DU-145; [10]): 3.39 µM

Cl.NCCCCCCCCCn1c2c(c3ccccc3c1=O)C(=O)c1ccccc1-2 [Compound 5as, 6-(9-Aminononyl)-5,6-dihydro-5,11-dioxo-11H-indeno[1,2-c]isoquinoline Hydrochloride]
melting point: 204 to 207 °C
MGM (mean GI50 across cell lines) [1, 2]: 8.13 µM
GI50 (breast MDA-MB-435; [3]): 9.55 µM
GI50 (colon HCT-116; [4]): 6.46 µM
GI50 (ovarian OVCAR-3; [5]): 9.55 µM
GI50 (lung HOP-62; [6]): 6.76 µM
GI50 (CNS SF-539; [7]): 9.77 µM
GI50 (renal SN12C; [8]): 8.51 µM
GI50 (melanoma UACC-62; [9]): 9.33 µM
GI50 (prostate DU-145; [10]): 6.03 µM

Cl.NCCCCCCCn1c2c(c3ccccc3c1=O)C(=O)c1ccccc1-2 [Compound 5aq, 6-(7-Aminoheptyl)-5,6-dihydro-5,11-dioxo-11H-indeno[1,2-c]isoquinoline Hydrochloride]
melting point: 228 to 231 °C
MGM (mean graph midpoint for growth inhibition) [1, 2]: 1.66 ± 0.155 µM
GI50 (breast MDA-MB-435; [3]): 2.24 µM
GI50 (colon HCT-116; [4]): 1.26 µM
GI50 (ovarian OVCAR-3; [5]): 1.7 µM
GI50 (lung HOP-62; [6]): 1.2 µM
GI50 (CNS SF-539; [7]): 1.78 µM
GI50 (renal SN12C; [8]): 1.66 µM
GI50 (melanoma UACC-62; [9]): 2 µM
GI50 (prostate DU-145; [10]): 0.832 µM

Cl.NCCCCCCCCCCCn1c2c(c3ccccc3c1=O)C(=O)c1ccccc1-2 [Compound 5au, 6-(11-Aminoundecyl)-5,6-dihydro-5,11-dioxo-11H-indeno[1,2-c]isoquinoline Hydrochloride]
melting point: 125 to 129 °C
MGM (mean GI50 across cell lines) [1, 2]: 5.13 µM
GI50 (breast MDA-MB-435; [3]): 11 µM
GI50 (colon HCT-116; [4]): 1.91 µM
GI50 (ovarian OVCAR-3; [5]): 2.09 µM
GI50 (lung HOP-62; [6]): 2.19 µM
GI50 (CNS SF-539; [7]): 2.04 µM
GI50 (renal SN12C; [8]): 2 µM
GI50 (melanoma UACC-62; [9]): 1.7 µM
GI50 (prostate DU-145; [10]): 4.57 µM

Cl.NCCCCCCCCCCCCn1c2c(c3ccccc3c1=O)C(=O)c1ccccc1-2 [Compound 5av, 6-(12-Aminododecyl)-5,6-dihydro-5,11-dioxo-11H-indeno[1,2-c]isoquinoline Hydrochloride]
melting point: 175 to 178 °C
MGM (mean GI50 across cell lines) [1, 2]: 18.2 µM
GI50 (breast MDA-MB-435; [3]): 19.5 µM
GI50 (ovarian OVCAR-3; [5]): 17.8 µM
GI50 (lung HOP-62; [6]): 17 µM
GI50 (CNS SF-539; [7]): 18.2 µM
GI50 (renal SN12C; [8]): 13.5 µM
GI50 (melanoma UACC-62; [9]): 14.8 µM
GI50 (prostate DU-145; [10]): 19.1 µM

Cl.NCCCCCCCCCCn1c2c(c3ccccc3c1=O)C(=O)c1ccccc1-2 [Compound 5at, 6-(10-Aminodecyl)-5,6-dihydro-5,11-dioxo-11H-indeno[1,2-c]isoquinoline Hydrochloride]
melting point: 189 to 192 °C
MGM (mean GI50 across cell lines) [1, 2]: 5.50 µM
GI50 (breast MDA-MB-435; [3]): 11.7 µM
GI50 (colon HCT-116; [4]): 2.75 µM
GI50 (ovarian OVCAR-3; [5]): 10.7 µM
GI50 (lung HOP-62; [6]): 4.79 µM
GI50 (CNS SF-539; [7]): 1.82 µM
GI50 (renal SN12C; [8]): 3.31 µM
GI50 (melanoma UACC-62; [9]): 13.8 µM
GI50 (prostate DU-145; [10]): 3.47 µM

COc1cc2c(=O)n(CCCN3CCOCC3)c3c(c2cc1O)C(=O)c1cc2c(cc1-3)OCO2 [Compound 18]
MGM (mean GI50 across cell lines) ([1]; Table 6, all human cancer cell lines successfully tested, range 10^−8 to 10^−4 molar, with standard error): 0.4 ± 0.005 µM
GI50 (breast MCF-7): 0.1 µM
GI50 (colon HCT-116): 0.39 µM
GI50 (ovarian OVCAR-3): 0.9 µM
GI50 (lung HOP-62): 0.3 µM
GI50 (CNS SF-539): 0.3 µM
GI50 (renal SN12C): 0.2 µM
GI50 (melanoma UACC-62): 0.3 µM
GI50 (prostate DU-145): 0.3 µM

From patent US9796753B2, “N-substituted indenoisoquinolines and syntheses thereof” (Purdue Research Foundation, priority 2005, dated 2017)
